{"source": "patent US11622991B2", "about": "“Protocol for treatment of lupus nephritis” (Aurinia Pharmaceuticals Inc., priority 2017, dated 2023)", "test_system": "lupus nephritis", "assay": "Predictability of week 48 partial remission from early C4 normalization (Table 11)", "format": "in vivo, human", "description": "PR is defined as at least 50% reduction in proteinuria (i.e. UPCR).\nSensitivity is defined as the probability that a subject showing PR at 48 weeks would have shown a favorable result with regard to the marker at the designated early time point. In the tables below, this is the ratio of the number of subjects with favorable marker results (early drop or normalization) to the total subjects with 48 week PR.\nSpecificity is defined as the probability that a subject not showing PR at 48 weeks would have shown an unfavorable result with regard to the marker at the designated early time point. In the tables below, this is the ratio of the number of subjects with unfavorable marker results (no early drop or no normalization) to the total subjects with no 48 week PR.\nPositive predictive value is defined as the probability that a subject showing a favorable result with respect to the marker at an earlier time point would show PR at 48 weeks. In the tables below, this is the ratio of the number of subjects with favorable marker results who have 48 week PR to those with favorable marker results (early reduction or yes column).\nNegative predictive value is defined as the probability that a subject showing an unfavorable result with respect to the marker at an earlier time point would not show PR at 48 weeks. In the tables below, this is the ratio of the number of subjects with unfavorable marker results who have no PR at 48 weeks to the total subjects with unfavorable marker results (no early reduction or no column).\nAnother criterion for effectiveness is normalization of C3 and/or C4 concentration in blood. The normal concentration of C3 is 90 mg/dl or greater and for C4 16 mg/dl or greater."}
{"smiles": "C=C/C=C/C[C@@H](C)[C@@H](O)[C@H]1C(=O)N[C@@H](CC)C(=O)N(C)CC(=O)N(C)[C@@H](CC(C)C)C(=O)N[C@@H](C(C)C)C(=O)N(C)[C@@H](CC(C)C)C(=O)N[C@@H](C)C(=O)N[C@H](C)C(=O)N(C)[C@@H](CC(C)C)C(=O)N(C)[C@@H](CC(C)C)C(=O)N(C)[C@@H](C(C)C)C(=O)N1C", "note": "[voclosporin]", "values": [{"measurement": "No Week 48 Partial Remission No Normalization", "setting": "week 12, 23.7 mg BID", "result": 8}, {"measurement": "No Week 48 Partial Remission Normalization", "setting": "week 12, 23.7 mg BID", "result": 10}, {"measurement": "No Week 48 Partial Remission No Normalization", "setting": "week 12, 39.5 mg BID", "result": 9}, {"measurement": "No Week 48 Partial Remission Normalization", "setting": "week 12, 39.5 mg BID", "result": 8}, {"measurement": "Normalization No", "setting": "week 12, 39.5 mg BID", "result": 31}, {"measurement": "Normalization Yes", "setting": "week 12, 39.5 mg BID", "result": 48}, {"measurement": "No Week 48 Partial Remission Normalization", "setting": "week 24, 23.7 mg BID", "result": 8}, {"measurement": "Normalization No", "setting": "week 24, 23.7 mg BID", "result": 31}, {"measurement": "Week 48 Partial Remission Normalization", "setting": "week 24, 23.7 mg BID", "result": 32}, {"measurement": "Normalization No", "setting": "week 48, 23.7 mg BID", "result": 31}, {"measurement": "Week 48 Partial Remission Normalization", "setting": "week 48, 23.7 mg BID", "result": 29}, {"measurement": "No Week 48 Partial Remission No Normalization", "setting": "week 48, 39.5 mg BID", "result": 11}]}
